Test results from patent US20220213052A1, “INHIBITORS OF RNA-BINDING PROTEINS, COMPOSITIONS THEREOF, AND THERAPEUTIC USES THEROF” (The University of North Carolina at Chapel Hill, priority 2019, published 2022).
pKi: −log10 of the molar value.

Experiments:
Musashi 2 (Msi2) = Musashi 2 (Msi2) (Homo sapiens, UniProt Q96DH6); assay: Msi2 FP assay; assay type: binding; conditions: cell marked (RRM1), read-out: Msi2 (Ki) (RRM1)
[1] = test system: MDA-MB-231 HuR knockout clones (HuR KO1 and HuR KO2); assay: Cytotoxicity against HuR knockout clones of MDA-MB-231; assay type: cell-based; conditions: HuR KO1 and HuR KO2 vs MDA-MB-231 and sgControl
Description: The cytotoxicity of various compounds of the present technology in several cancer cell lines (pancreatic cancer cell line MIAPaCa-2, triple-negative breast cancer cell line MDA-MB-231, and colon cancer cell lines HCT116, HCT116 β/W, and RKO) was assessed by a cytotoxicity assay. Cells were seeded in 96-well culture plates (3,000-5,000 cells/well) and treated with titrated compounds in triplicate. After 96 h incubation, cell growth medium was removed and proliferation reagent WST-8 (Sigma) was added to each well and incubated at 37° C. for 1-3 h. Absorbance was then measured with a plate reader at 450 nm with correction at 650 nm. The results were expressed as the percentage of absorbance of treated wells versus that of vehicle control. IC50, the drug concentration causing 50% growth inhibition, was calculated via sigmoid curve fitting using GraphPad Prism 5.0. The results for those compounds tested against MIAPaCa-2 and MDA-MB-231 are provided in Table 1; the results for those compounds tested against colon cancer cell lines HCT116, HCT116 β/W, and RKO are provided in Table 3.
The cytotoxicity of KH-39 and KH-58 against HuR knockout clones was probed by the same assay as described above. […]

[2] = biological target: T1, HuR protein bound to ARE^Msi1-Biotin (Homo sapiens, UniProt Q15717); assay: RNA immunoprecipitation (RNA-IP) pull-down assay; assay type: cell-based; conditions: 20 μM
T1 construct: endogenous in cells; cytoplasmic lysate
Description: Pull-down Assay #1—RNA Immunoprecipitation (RNA-IP): Cells with HuR overexpression will be treated with compounds, then the cell cytoplasmic lysates were collected using NE-PER Nuclear and Cytoplasmic Extraction Kit (Thermo Scientific), and subsequently to the cell cytoplasmic lysates were added the biotinylated target ARE oligo from Msi1 mRNA (ARE^Msi1-Biotin). Following this, streptavidin beads were added to pull down HuR protein bound to ARE^Msi1-Biotin. Unlabeled target AREs used as positive control. Compounds of the present technology block the HuR pull-down by the biotinylated ARE oligo, illustrating inhibition of the HuR-mRNA interaction. For example, using 20 μM KH-39, 20 μM KH-56, and 10 μM KH-58 in such a RNA-IP assay provided the data illustrated in FIG. 5. The numbers immediately below the pictured bands in FIG. 5 are calculated by diving the band intensity of the particular sample by the band intensity of the DMSO treated sample (entry 3). […]

[3] = test system: 2LMP subclone generated from MDA-MB-231; assay: 2LMP mouse xenograft model; assay type: in vivo
Source text: Xenograft and orthotopic models of cancer cell lines with HuR overexpression will be used to test the in vivo therapeutic potential of compounds of the present technology. A person of ordinary skill in the art is well apprised of cancer cell lines with HuR overexpression, as exemplified by references 2-12 cited herein in the “References” section. Tumor models will be established as described in Xu, L., et al., (−)−Gossypol enhances response to radiation therapy and results in tumor regression of human prostate cancer. Mol Cancer Ther, 2005. 4(2): p. 197-205.35 Briefly, 4-6 week old athymic NCr-nu/nu mice or 8-10-week-old NOD/SCID mice will be inoculated subcutaneously on both sides of flanks with 0.1 ml of a cell suspension of 1-5×10^6 tumor cells. Tumors will be allowed to grow to approximately 100 mm^3, when the blood vessel supplies to the tumor are established. Each group will contain at least 5 animals with at least 10 tumors across the five animals. Animals will be given compounds or vehicle i.v., i.p. or q.o.d.×2-3 weeks as described in Xu, L., et al., Systemic p53 gene therapy of cancer with immunolipoplexes targeted by anti-transferrin receptor scFv. Mol Med, 2001. 7(10): p. 723-34 and Xu, L., et al., Self-assembly of a virus-mimicking nanostructure system for efficient tumor-targeted gene delivery. […] The tumor sizes and animal body weights will be measured twice a week. […]

Sequence of Musashi 2 (Msi2) (Q96DH6 whole entry, species assumed): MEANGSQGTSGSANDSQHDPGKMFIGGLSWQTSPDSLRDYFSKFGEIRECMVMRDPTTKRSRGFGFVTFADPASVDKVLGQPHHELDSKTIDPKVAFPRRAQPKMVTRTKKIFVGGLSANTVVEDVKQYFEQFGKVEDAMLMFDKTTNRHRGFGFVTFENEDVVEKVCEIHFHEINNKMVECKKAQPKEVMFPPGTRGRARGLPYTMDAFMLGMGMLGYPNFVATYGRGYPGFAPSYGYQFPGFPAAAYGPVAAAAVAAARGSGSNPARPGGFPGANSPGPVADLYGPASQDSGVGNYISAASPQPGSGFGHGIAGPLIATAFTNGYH
T1 sequence (Q15717 2-326 limits assumed): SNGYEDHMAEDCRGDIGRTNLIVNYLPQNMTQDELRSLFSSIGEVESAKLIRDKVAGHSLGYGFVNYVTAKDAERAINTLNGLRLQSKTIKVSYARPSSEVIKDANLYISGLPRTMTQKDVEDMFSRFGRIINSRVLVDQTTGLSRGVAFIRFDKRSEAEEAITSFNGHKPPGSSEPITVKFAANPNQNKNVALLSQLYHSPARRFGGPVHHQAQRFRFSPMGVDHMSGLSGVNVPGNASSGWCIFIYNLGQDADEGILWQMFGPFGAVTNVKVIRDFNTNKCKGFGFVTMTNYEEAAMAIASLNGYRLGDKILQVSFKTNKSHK

SMILES: CC(C)(C)c1ccc(C(=O)Nc2ccc3[nH]c(C(=O)NO)cc3c2)cc1 [KH-39, 5-(4-(tert-butyl)benzamido)-N-hydroxy-1H-indole-2-carboxamide]
- pKi (Musashi 2 (Msi2)): 5.50
- IC50 of HuR KO clones versus parental cells and vector control cells [1]: two to three folds higher IC50 values
- ARE^Msi1-Biotin mediated pull-down of HuR protein [2]: block ARE^Msi1-Biotin mediated pull-down of HuR protein
- bodyweight gain of mice ([3]; 2LMP xenograft model): gain bodyweight with similar trend to those in vehicle control group
- tumor growth compared to the vehicle control ([3]; after three-week treatment, ****P<0.0001, n=10): significantly decreased tumor growth
